Assay results as given in US20250296959A1, “B7-H3 TARGETING PEPTIDES AND CONSTRUCTS THEREOF” (Mariana Oncology Inc., priority 2024, published 2025).
Starred links: 1 amine or outer side, 2 acyl side, 3 side chain; linkers in the order of their positions; H or OH if unused. Positions of bridges follow the written chain, without caps; N, C: chain ends. Non-standard residues stand in square brackets, D forms with d. Residues, ends and D or L forms follow the SMILES beside them. *: point of attachment. Ala(piperidin-4-yl) = O=C([C@H](CC1CCN([*:3])CC1)N[*:1])[*:2]; DOTA = O=C(O)CN1CCN(CC(=O)O)CCN(CC(=O)*)CCN(CC(=O)O)CC1; Trp(5-F) = N[C@@H](Cc1c[nH]c2ccc(F)cc12)C(=O)O; Phe(4-F) = N[C@@H](Cc1ccc(F)cc1)C(=O)O; AEF = NCCOc1ccc(C[C@H](N)C(=O)O)cc1; αMeY = C[C@](N)(Cc1ccc(O)cc1)C(=O)O; Val(3-OH) = CC(C)(O)[C@H](N)C(=O)O; NMeF = CN[C@@H](Cc1ccccc1)C(=O)O; Cha = N[C@@H](CC1CCCCC1)C(=O)O; hLeu = CC(C)CC[C@H](N)C(=O)O; hSer = N[C@@H](CCO)C(=O)O; Nle = CCCC[C@H](N)C(=O)O; Nva = CCC[C@H](N)C(=O)O; CH2 = C([*:1])[*:2]

Target: T1, human 4lg B7-H3 (Homo sapiens, UniProt Q5ZPR3)
T1 sequence (Q5ZPR3 29-534): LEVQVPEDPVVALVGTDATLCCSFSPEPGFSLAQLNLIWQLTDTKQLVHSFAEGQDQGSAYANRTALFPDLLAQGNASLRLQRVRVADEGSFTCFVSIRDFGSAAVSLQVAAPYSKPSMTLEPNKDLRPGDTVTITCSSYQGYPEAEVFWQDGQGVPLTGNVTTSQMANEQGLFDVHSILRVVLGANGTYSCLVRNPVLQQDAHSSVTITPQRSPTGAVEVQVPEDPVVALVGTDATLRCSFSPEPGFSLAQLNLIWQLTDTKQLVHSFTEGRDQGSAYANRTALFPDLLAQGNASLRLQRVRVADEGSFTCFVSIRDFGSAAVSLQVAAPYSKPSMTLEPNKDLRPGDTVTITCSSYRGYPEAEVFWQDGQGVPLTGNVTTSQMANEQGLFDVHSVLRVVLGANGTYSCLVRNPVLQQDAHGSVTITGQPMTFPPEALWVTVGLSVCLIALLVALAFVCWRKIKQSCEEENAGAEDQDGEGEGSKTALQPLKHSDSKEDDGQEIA
Experiment: Affinity determination by surface plasmon resonance (SPR) to 4Ig B7-H3
Details: SPR KD—25° C., 4Ig B7-H3; 25° C. flow cell temperature

Compound | Kd [nM]
CCC[C@@H]1NC(=O)[C@H](CC(=O)O)NC(=O)[C@H](Cc2ccc(O)cc2)NC(=O)[C@H](CCCCN)NC(=O)CNC(=O)[C@H](C(C)C)NC(=O)[C@@H](NC(=O)[C@H](Cc2ccc(O)cc2)NC(=O)[C@H](CCC(C)C)NC(C)=O)CSSC[C@@H](C(=O)N[C@@H](Cc2c[nH]c3ccc(F)cc23)C(=O)N[C@@H](Cc2ccccc2)C(=O)N[C@H](C(=O)N[C@H](CCCCNC(=O)CN2CCN(CC(=O)O)CCN(CC(=O)O)CCN(CC(=O)O)CC2)C(N)=O)[C@@H](C)O)NC(=O)[C@H](Cc2ccc(O)cc2)NC1=O [compound 185, Ac-hLeu-Y-C-V-G-K-Y-D-Nva-Y-C-5FW-F-Thr-dLys(DOTA)-CONH2] (Ac-[hLeu]YCVGKYD[Nva]YC[Trp(5-F)]FT[dK](DOTA)-NH2; disulfide 3-11) | 1 to 10
CCCC[C@@H]1NC(=O)[C@H](CC(=O)O)NC(=O)[C@H](Cc2ccc(O)cc2)NC(=O)[C@H](CCCCN)NC(=O)CNC(=O)[C@H](C(C)C)NC(=O)[C@@H](NC(=O)[C@H](Cc2ccc(O)cc2)NC(=O)[C@H](CCC(C)C)NC(C)=O)CSSC[C@@H](C(=O)N[C@@H](Cc2c[nH]c3ccc(F)cc23)C(=O)N[C@@H](Cc2ccccc2)C(=O)N[C@H](C(=O)N[C@H](CCCCNC(=O)CN2CCN(CC(=O)O)CCN(CC(=O)O)CCN(CC(=O)O)CC2)C(N)=O)[C@@H](C)O)NC(=O)[C@H](Cc2ccc(O)cc2)NC1=O [compound 186, Ac-hLeu-Y-C-V-G-K-Y-D-Nle-Y-C-5FW-F-Thr-dLys(DOTA)-CONH2] (Ac-[hLeu]YCVGKYD[Nle]YC[Trp(5-F)]FT[dK](DOTA)-NH2; disulfide 3-11) | 1 to 10
CC(=O)N[C@@H](CCC(C)C)C(=O)N[C@@H](Cc1ccc(O)cc1)C(=O)N[C@H]1CSCSC[C@@H](C(=O)N[C@@H](Cc2c[nH]c3ccc(F)cc23)C(=O)N[C@@H](Cc2ccccc2)C(=O)N[C@H](C(=O)N[C@H](CCCCNC(=O)CN2CCN(CC(=O)O)CCN(CC(=O)O)CCN(CC(=O)O)CC2)C(N)=O)[C@@H](C)O)NC(=O)[C@H](Cc2ccc(O)cc2)NC(=O)[C@H](C(C)C)NC(=O)[C@H](CC(=O)O)NC(=O)[C@H](Cc2ccc(O)cc2)NC(=O)[C@H](CCCCN)NC(=O)CNC(=O)[C@H](C(C)C)NC1=O [compound 189, Ac-hLeu-Y-C(CH2)-V-G-K-Y-D-V-Y-C-5FW-F-Thr-dLys(DOTA)-CONH2] (Ac-[hLeu]YCVGKYDVYC[Trp(5-F)]FT[dK](DOTA)-NH2; linker 3-11 via CH2) | 100 to 300
CC(=O)N[C@@H](CCC(C)C)C(=O)N[C@@H](Cc1ccc(O)cc1)C(=O)N[C@H]1CSSC[C@@H](C(=O)N[C@@H](Cc2c[nH]c3ccc(F)cc23)C(=O)N[C@@H](Cc2ccccc2)C(=O)N[C@H](C(N)=O)[C@@H](C)O)NC(=O)[C@H](Cc2ccc(OCCNC(=O)CN3CCN(CC(=O)O)CCN(CC(=O)O)CCN(CC(=O)O)CC3)cc2)NC(=O)[C@H](C(C)C)NC(=O)[C@H](CC(=O)O)NC(=O)[C@H](Cc2ccc(O)cc2)NC(=O)[C@H](CCCCN)NC(=O)CNC(=O)[C@H](C(C)C)NC1=O [compound 191, Ac-hLeu-Y-C-V-G-K-Y-D-V-AEF(DOTA)-C-5FW-F-Thr-CONH2] (Ac-[hLeu]YCVGKYDV[AEF](DOTA)C[Trp(5-F)]FT-NH2; disulfide 3-11) | 1 to 10
CC(=O)N[C@@H](CCC(C)C)C(=O)N[C@@H](Cc1ccc(F)cc1)C(=O)N[C@H]1CSSC[C@@H](C(=O)N[C@@H](Cc2c[nH]c3ccc(F)cc23)C(=O)N[C@@H](Cc2ccccc2)C(=O)N[C@H](C(=O)N[C@H](CCCCNC(=O)CN2CCN(CC(=O)O)CCN(CC(=O)O)CCN(CC(=O)O)CC2)C(N)=O)[C@@H](C)O)NC(=O)[C@H](Cc2ccc(O)cc2)NC(=O)[C@H](C(C)C)NC(=O)[C@H](CC(=O)O)NC(=O)[C@H](Cc2ccc(O)cc2)NC(=O)[C@H](CCCCN)NC(=O)CNC(=O)[C@H](C(C)C)NC1=O [compound 192, Ac-hLeu-4FPhe-C-V-G-K-Y-D-V-Y-C-5FW-F-Thr-dLys(DOTA)-CONH2] (Ac-[hLeu][Phe(4-F)]CVGKYDVYC[Trp(5-F)]FT[dK](DOTA)-NH2; disulfide 3-11) | 1 to 10
COc1ccc(C[C@H](NC(=O)[C@H](CCC(C)C)NC(C)=O)C(=O)N[C@H]2CSSC[C@@H](C(=O)N[C@@H](Cc3c[nH]c4ccc(F)cc34)C(=O)N[C@@H](Cc3ccccc3)C(=O)N[C@H](C(=O)N[C@H](CCCCNC(=O)CN3CCN(CC(=O)O)CCN(CC(=O)O)CCN(CC(=O)O)CC3)C(N)=O)[C@@H](C)O)NC(=O)[C@H](Cc3ccc(O)cc3)NC(=O)[C@H](C(C)C)NC(=O)[C@H](CC(=O)O)NC(=O)[C@H](Cc3ccc(O)cc3)NC(=O)[C@H](CCCCN)NC(=O)CNC(=O)[C@H](C(C)C)NC2=O)cc1 [compound 193, Ac-hLeu-OMeTyr-C-V-G-K-Y-D-V-Y-C-5FW-F-Thr-dLys(DOTA)-CONH2] (Ac-[hLeu]Y(Me)CVGKYDVYC[Trp(5-F)]FT[dK](DOTA)-NH2; disulfide 3-11) | 10 to 100

Further lines, results first:

Kd [nM] | Compound
10 to 100 | CC(=O)N[C@@H](CCC(C)C)C(=O)N[C@@](C)(Cc1ccc(O)cc1)C(=O)N[C@H]1CSSC[C@@H](C(=O)N[C@@H](Cc2c[nH]c3ccc(F)cc23)C(=O)N[C@@H](Cc2ccccc2)C(=O)N[C@H](C(=O)N[C@H](CCCCNC(=O)CN2CCN(CC(=O)O)CCN(CC(=O)O)CCN(CC(=O)O)CC2)C(N)=O)[C@@H](C)O)NC(=O)[C@H](Cc2ccc(O)cc2)NC(=O)[C@H](C(C)C)NC(=O)[C@H](CC(=O)O)NC(=O)[C@H](Cc2ccc(O)cc2)NC(=O)[C@H](CCCCN)NC(=O)CNC(=O)[C@H](C(C)C)NC1=O [compound 195, Ac-hLeu-aMeTyr-C-V-G-K-Y-D-V-Y-C-5FW-F-Thr-dLys(DOTA)-CONH2] (Ac-[hLeu][αMeY]CVGKYDVYC[Trp(5-F)]FT[dK](DOTA)-NH2; disulfide 3-11)
1 to 10 | CC(=O)N[C@@H](CCC(C)C)C(=O)N[C@@H](Cc1ccc(O)cc1)C(=O)N[C@H]1CSSC[C@@H](C(=O)N[C@@H](Cc2c[nH]c3ccc(F)cc23)C(=O)N[C@@H](Cc2ccccc2)C(=O)N[C@H](C(=O)N[C@H](CCCCNC(=O)CN2CCN(CC(=O)O)CCN(CC(=O)O)CCN(CC(=O)O)CC2)C(N)=O)[C@@H](C)O)NC(=O)[C@H](Cc2ccc(O)cc2)NC(=O)[C@H](C(C)C)NC(=O)[C@H](CC(=O)O)NC(=O)[C@H]([C@@H](C)O)NC(=O)[C@H](CCCCN)NC(=O)CNC(=O)[C@H](C(C)C)NC1=O [compound 198, Ac-hLeu-Y-C-V-G-K-T-D-V-Y-C-5FW-F-Thr-dLys(DOTA)-CONH2] (Ac-[hLeu]YCVGKTDVYC[Trp(5-F)]FT[dK](DOTA)-NH2; disulfide 3-11)
1 to 10 | CC(=O)N[C@@H](CCC(C)C)C(=O)N[C@@H](Cc1ccc(O)cc1)C(=O)N[C@H]1CSSC[C@@H](C(=O)N[C@@H](Cc2c[nH]c3ccc(F)cc23)C(=O)N[C@@H](Cc2ccccc2)C(=O)N[C@H](C(=O)N[C@H](CCCCNC(=O)CN2CCN(CC(=O)O)CCN(CC(=O)O)CCN(CC(=O)O)CC2)C(N)=O)[C@@H](C)O)NC(=O)[C@H](Cc2ccc(O)cc2)NC(=O)[C@H](C(C)C)NC(=O)[C@H](CC(=O)O)NC(=O)[C@H](CCO)NC(=O)[C@H](CCCCN)NC(=O)CNC(=O)[C@H](C(C)C)NC1=O [compound 199, Ac-hLeu-Y-C-V-G-K-hSer-D-V-Y-C-5FW-F-Thr-dLys(DOTA)-CONH2] (Ac-[hLeu]YCVGK[hSer]DVYC[Trp(5-F)]FT[dK](DOTA)-NH2; disulfide 3-11)
1 to 10 | CC(=O)N[C@@H](CCC(C)C)C(=O)N[C@@H](Cc1ccc(O)cc1)C(=O)N[C@H]1CSSC[C@@H](C(=O)N[C@@H](Cc2c[nH]c3ccc(F)cc23)C(=O)N[C@@H](Cc2ccccc2)C(=O)N[C@H](C(N)=O)C(C)(C)O)NC(=O)[C@H](Cc2ccc(O)cc2)NC(=O)[C@H](C(C)C)NC(=O)[C@H](CC(=O)O)NC(=O)[C@H](CC2CCCCC2)NC(=O)[C@H](CCCCNC(=O)CN2CCN(CC(=O)O)CCN(CC(=O)O)CCN(CC(=O)O)CC2)NC(=O)CNC(=O)[C@H](C(C)C)NC1=O [compound 201, Ac-hLeu-Y-C-V-G-Lys(DOTA)-CHA-D-V-Y-C-5FW-F-hydroxyVal-CONH2] (Ac-[hLeu]YCVGK(DOTA)[Cha]DVYC[Trp(5-F)]F[Val(3-OH)]-NH2; disulfide 3-11)
1 to 10 | CC(=O)N[C@@H](CCC(C)C)C(=O)N[C@@H](Cc1ccc(O)cc1)C(=O)N[C@H]1CSSC[C@@H](C(=O)N[C@@H](Cc2c[nH]c3ccc(F)cc23)C(=O)N[C@@H](Cc2ccccc2)C(=O)N[C@H](C(N)=O)C(C)(C)O)NC(=O)[C@H](Cc2ccc(O)cc2)NC(=O)[C@H](C(C)C)NC(=O)[C@H](CC(=O)O)NC(=O)[C@H](CC2CCNCC2)NC(=O)[C@H](CCCCNC(=O)CN2CCN(CC(=O)O)CCN(CC(=O)O)CCN(CC(=O)O)CC2)NC(=O)CNC(=O)[C@H](C(C)C)NC1=O [compound 202, Ac-hLeu-Y-C-V-G-Lys(DOTA)-PipAla-D-V-Y-C-5FW-F-hydroxyVal-CONH2] (Ac-[hLeu]YCVGK(DOTA)[Ala(piperidin-4-yl)]DVYC[Trp(5-F)]F[Val(3-OH)]-NH2; disulfide 3-11)
1 to 10 | CC(=O)N[C@@H](CCC(C)C)C(=O)N[C@@H](Cc1ccc(O)cc1)C(=O)N[C@H]1CSSC[C@@H](C(=O)N[C@@H](Cc2c[nH]c3ccc(F)cc23)C(=O)N(C)[C@@H](Cc2ccccc2)C(=O)N[C@H](C(=O)N[C@H](CCCCNC(=O)CN2CCN(CC(=O)O)CCN(CC(=O)O)CCN(CC(=O)O)CC2)C(N)=O)[C@@H](C)O)NC(=O)[C@H](Cc2ccc(O)cc2)NC(=O)[C@H](C(C)C)NC(=O)[C@H](CC(=O)O)NC(=O)[C@H](Cc2ccc(O)cc2)NC(=O)[C@H](CCCCN)NC(=O)CNC(=O)[C@H](C(C)C)NC1=O [compound 205, Ac-hLeu-Y-C-V-G-K-Y-D-V-Y-C-5FW-NMePhe-Thr-dLys(DOTA)-CONH2] (Ac-[hLeu]YCVGKYDVYC[Trp(5-F)][NMeF]T[dK](DOTA)-NH2; disulfide 3-11)
